Results reported in PMC11317440, “Soloxolone para-methylanilide effectively suppresses aggressive phenotype of glioblastoma cells including TGF-β1-induced glial-mesenchymal transition in vitro and inhibits growth of U87 glioblastoma xenografts in mice” (Frontiers in Pharmacology, 2024).

How the values were obtained:
[1] = test system: U87 cells; assay: MTT assay 72 h, 7 and TMZ alone and combined, synergy (HSA), U87; assay type: cell-based, human
Description: (§1) The drug synergy score was calculated for the dose-response matrix according to the highest single-agent (HSA) model using the SynergyFinder + web application (https://www.synergyfinder.org/).

[2] = test system: U118 cells; assay: MTT assay 72 h, 7 and TMZ alone and combined, synergy (HSA), U118; assay type: cell-based, human
Description: as §1

[3] = test system: EPNT-5 cells; assay: MTT assay 72 h, 7 and TMZ alone and combined, synergy (HSA), EPNT-5; assay type: cell-based, mouse; details: MTT
Description: as §1

[4] = test system: ROS production in U87 cells; assay: Intracellular ROS (DCFDA staining, flow cytometry), U87; assay type: cell-based, human; details: U87, TMZ 125 μM, 7 100 nM, NAC 2 mM, 72 h
Description: Intracellular ROS levels were measured according to previously published studies ([Han et al., 2008]; [Samandari-Bahraseman et al., 2023]; [Kopsida et al., 2024]), using the DCFDA/H2DCFDA Cellular ROS Assay Kit (Abcam, Cambridge, United Kingdom). U87 cells were incubated with 7 and TMZ with or without NAC for 72 h (n = 3). Cells were then washed with PBS and incubated with 20 µM H2DCFDA for 30 min under standard conditions, followed by the removal of H2DCFDA-containing medium and double washing with PBS.
(§2) After staining, 10,000 cells per sample were analyzed on a NovoCyte flow cytometer using NovoExpress software (ACEA Biosciences, Inc., USA).

[5] = test system: U87 cells; assay: Annexin V-FITC/propidium iodide flow cytometry, U87, 72 h, TMZ/7/NAC; assay type: cell-based, human; details: U87, TMZ 500 μM, 7 600 nM
Description: […] To quantify the total proportion of apoptotic cells in control and experimental groups, the events accumulated in the lower right quadrant (early apoptosis) and upper right quadrant (late apoptosis) were summarized.
as §2

[6] = test system: U87 glioblastoma xenograft; assay: U87 glioblastoma xenograft model; assay type: in vivo, athymic nude mice; details: end of the experiment (day 19); 7 20 mg/kg i.p., TMZ 10 mg/kg i.p.
Description: A xenograft model of tumor progression was induced by subcutaneous (s.c.) implantation of U87 glioblastoma cells (2×10^7 cells/mL) suspended in 0.1 mL of saline buffer into the left flank of athymic nude mice. On day 4 after tumor transplantation, the mice were divided into four groups: (1) mice received intraperitoneal (i.p.) injections of 10% Tween-80 (vehicle) (n = 6); (2) mice received i.p. injections of compound 7 in 10% Tween-80 at a dose of 20 mg/kg (n = 5); (3) mice received i.p. injections of TMZ in saline buffer at a dose of 10 mg/kg (n = 5); (4) mice received combination therapy of compound 7 and TMZ at the same dosage and administration route (n = 6). Compound 7 was administered three times per week; in total seven injections were performed. TMZ was administered daily except weekends; in total eleven injections were performed. During the experiment, the tumor volumes were determined three times per week using caliper measurements and were calculated as V = (D × d^2)/2, where D is the longest diameter of the tumor node and d is the shortest diameter of the tumor node perpendicular to D. Mice were sacrificed on day 19 after tumor transplantation and material (tumor nodes, livers, and kidneys) was collected for subsequent analysis.

[7] = Toxicity assessment in U87 glioblastoma-bearing mice; assay type: in vivo, athymic nude mice; details: 7 20 mg/kg i.p. or TMZ 10 mg/kg i.p. injected alone
Description: During the experiment, the general status and body weight of the animals were monitored. At the end of the experiment, livers and kidneys were collected and organ indices were calculated as (organ weight/body weight) × 100%, followed by the normalization of organ indices of experimental mice to organ indices of control mice.

[8] = test system: U87 glioblastoma tumor tissue; assay: Histology and immunohistochemistry of U87 xenograft tumors; assay type: in vivo, athymic nude mice; details: day 19
Description: For the histological study, the tumor specimens were fixed in 10% neutral-buffered formalin (BioVitrum, Moscow, Russia), dehydrated in ascending ethanols and xylols and embedded in HISTOMIX paraffin (BioVitrum, Russia). The paraffin sections (3–4 µm) were sliced on a Microm HM 355S microtome (Thermo Fisher Scientific, Waltham, MA, USA) and stained with hematoxylin and eosin.
For the immunohistochemical study, the tumor sections were deparaffinized and rehydrated. Antigen retrieval was carried out after exposure in a microwave oven at 700 W. The samples were incubated with anti-Ki-67 (ab16667, Abcam, Boston, MA, USA) (n = 3), anti-GFAP (ab194325, Abcam, USA) (n = 3), and anti-N-cadherin (ab76011, Abcam, USA) (n = 3) primary antibodies according to the manufacturer’s protocol. Then, the sections were incubated with secondary horseradish peroxidase (HPR)-conjugated antibodies, exposed to the 3,30-diaminobenzidine (DAB) substrate (Rabbit Specific HRP/DAB (ABC) Detection IHC Kit, ab64261, Abcam, USA) and stained with Mayer’s hematoxylin.
Five to ten random fields were examined from the tumor specimens of three mice in each group, for a total of 15–30 test fields.

[9] = test system: U87 glioblastoma cells; assay: MTT cell viability assay, U87 cells, 48 h; assay type: cell-based, human; details: for relative cytotoxicity: 48 h of incubation, U87; for MNTC: Homo sapiens, U-87 MG, 48 h, read-out: non-toxic concentration that reduced U87 cell viability by less than 10%
Description: Cells were seeded in quadruplicate in 96-well plates at 10,000 cells/well and allowed to adhere overnight. The medium was then replaced with serum-free DMEM containing increasing concentrations of soloxolone amides for 48 h. After incubation, 3-(4,5-dimethylthiazol-2-yl)-2,5-diphenyltetrazolium bromide (MTT dye) was added at a final concentration of 0.5 mg/mL and left for 2 h. The resulting formazan crystals were dissolved in DMSO and the optical density was measured at 570 nm using a Multiscan RC plate reader (Thermo LabSystems, Helsinki, Finland).

[10] = test system: TGF-β1-treated U87 cells; assay: Adhesion of U87 cells to culture plastic (TrypLE treatment assay); assay type: cell-based, human; details: TGF-β1 50 ng/mL, non-toxic concentrations, 48 h
Description: Adhesiveness of glioblastoma cells was assessed by two independent methods. First, cell adhesion to culture plastic was tested using a trypsin treatment assay, as previously described ([Sava et al., 2004]; [Mazuryk et al., 2015]; [van Dijk et al., 2017]). Briefly, U87 and U118 cells (10,000 cells per well of a 96-well plate, n = 4) were cultured with TGF-β1 (50 ng/mL) and non-toxic concentrations of soloxolone amides for 48 h and then treated with a 1:20 dilution of TrypLE Express (Gibco, USA) in PBS for 3 min at 37°C. Non-adherent cells were then removed by a triple PBS wash, and the remaining adherent cells were fixed with 4% formaldehyde and stained with crystal violet dye (0.1% w/v). Images were captured using the iBright 1,500 Imaging System (Invitrogen, USA), and the cell-occupied area was calculated using ImageJ. Alternatively, the number of adherent cells was quantified using the MTT assay.

[11] = test system: TGF-β1-induced U87 cells; assay: Cell morphology (cell size) of TGF-β1-induced U87 cells; assay type: cell-based, human; details: TGF-β1 50 ng/mL, non-toxic concentrations, 48 h
Description: After seeding at a concentration of 5,000 cells/well in triplicate in 96-well plates and incubating overnight, U87 and U118 cells were exposed to TGF-β1 (50 ng/mL) and non-toxic concentrations of soloxolone amides for 48 h. An EVOS XL Core microscope with an integrated CMOS camera (Thermo Fisher Scientific, USA) was then used to examine cell morphology at ×20 magnification. Aspect ratio (AR) and area were quantified for at least 150 cells in each experimental group using ImageJ software (NIH, USA).

[12] = test system: U87 primary tumorspheres; parameters: method as in Markov et al., 2023; details: ref Markov et al., 2023; cited from earlier work
[13] = test system: U87 glioblastoma xenograft; parameters: method as in Markov et al., 2022a; details: 9 administered at a similar dose and schedule; ref Markov et al., 2022a; cited from earlier work

Cn1nnc2c(C(N)=O)ncn2c1=O [TMZ, temozolomide, reference compound]
IC50 ([1]; MTT): 213 µM
reduction of the cytotoxic effect by NAC ([1]; U87, NAC 2 mM, TMZ 125 μM, 7 100 nM): 22.3%
IC50 ([2]; MTT): > 500 µM
reduction of the cytotoxic effect by NAC ([2]; U118, NAC 2 mM, TMZ 125 μM, 7 100 nM): 32.5%
IC50 [3]: > 500 µM
ROS accumulation (in words) [4]: did not increase ROS accumulation
cells in the right quadrants (apoptosis) [5]: 9%
reduction in tumor weight compared to the vehicle [6]: 21.9 fold
toxic effects (body weight and organ indices) [7]: no toxic effects
N-cadherin and GFAP levels in tumor sections (immunohistochemistry) [8]: significantly reduced their levels
reduction in the numerical density of Ki-67-positive cells compared to vehicle [8]: 9 fold

CC1(C)C(=O)C(C#N)=C[C@]2(C)C3=CC(=O)[C@@H]4[C@@H]5C[C@@](C)(C(=O)NCCCCCO)CC[C@]5(C)CC[C@@]4(C)[C@]3(C)CCC12 (stereo partly drawn) [compound 2, N-(5′-hydroxypentyl)-2-cyano-3,12-dioxo-18βH-olean-9(11),1(2)-dien-30-amide]
relative cytotoxicity [9]: moderate
MNTC [9]: 100 nM

CN(C)CCNC(=O)[C@@]1(C)CC[C@]2(C)CC[C@]3(C)[C@H](C(=O)C=C4[C@@]5(C)C=C(C#N)C(=O)C(C)(C)C5CC[C@]43C)[C@@H]2C1 (stereo partly drawn) [compound 3, N-(2′-(dimethylamino)ethyl)-2-cyano-3,12-dioxo-18βH-olean-9(11),1(2)-dien-30-amide]
relative cytotoxicity [9]: low
MNTC [9]: 300 nM
adhesion of TGF-β1-treated U87 cells to culture plastic (crystal violet) [10]: restoring it to control levels

CN(C)CCCNC(=O)[C@@]1(C)CC[C@]2(C)CC[C@]3(C)[C@H](C(=O)C=C4[C@@]5(C)C=C(C#N)C(=O)C(C)(C)C5CC[C@]43C)[C@@H]2C1 (stereo partly drawn) [compound 4, N-(3′-(dimethylamino)propyl)-2-cyano-3,12-dioxo-18βH-olean-9(11),1(2)-dien-30-amide]
relative cytotoxicity [9]: low
MNTC [9]: 300 nM

CC1(C)C(=O)C(C#N)=C[C@]2(C)C3=CC(=O)[C@@H]4[C@@H]5C[C@@](C)(C(=O)Nc6ccc(Br)cc6)CC[C@]5(C)CC[C@@]4(C)[C@]3(C)CCC12 (stereo partly drawn) [compound 5, N-(4′-bromophenyl)-2-cyano-3,12-dioxo-18βH-olean-9(11),1(2)-dien-30-amide]
relative cytotoxicity [9]: high
MNTC [9]: 50 nM
effect on size/morphology of TGF-β1-induced U87 cells [11]: restored their morphological characteristics to the control cells

CC1(C)C(=O)C(C#N)=C[C@]2(C)C3=CC(=O)[C@@H]4[C@@H]5C[C@@](C)(C(=O)Nc6cccnc6)CC[C@]5(C)CC[C@@]4(C)[C@]3(C)CCC12 (stereo partly drawn) [compound 6, N-(pyridin-3-yl)-2-cyano-3,12-dioxo-18βH-olean-9(11),1(2)-dien-30-amide]
relative cytotoxicity [9]: moderate
MNTC [9]: 100 nM

CC(C)(C)c1cc(CCCNC(=O)[C@@]2(C)CC[C@]3(C)CC[C@]4(C)[C@H](C(=O)C=C5[C@@]6(C)C=C(C#N)C(=O)C(C)(C)C6CC[C@]54C)[C@@H]3C2)cc(C(C)(C)C)c1O (stereo partly drawn) [compound 8, N-(3′-(3″,5″-di-tert-butyl-4″-hydroxyphenyl)propyl)-2-cyano-3,12-dioxo-18βH-olean-9(11),1(2)-dien-30-amide]
relative cytotoxicity [9]: high
MNTC [9]: 50 nM

CC1(C)C(=O)C(C#N)=C[C@]2(C)C3=CC(=O)[C@@H]4[C@@H]5C[C@@](C)(C(=O)NCCc6c[nH]c7ccccc67)CC[C@]5(C)CC[C@@]4(C)[C@]3(C)CCC12 (stereo partly drawn) [compound 9]
relative cytotoxicity [9]: moderate
MNTC [9]: 100 nM
effect on size/morphology of TGF-β1-induced U87 cells [11]: restored their morphological characteristics to the control cells
concentration causing a large-scale reduction of spheroids [12]: 4 µM
reduction in tumor weight compared to the vehicle-treated group [13]: 3.4 fold
